Paper PMC10360169 (Frontiers in Immunology, 2023)
Like-named read-outs stand apart in the source and are kept apart here.

Tested on: Acar3
Assay type: binding, great reed warbler Acrocephalus arundinaceus
[1] = Table S5, half-life estimated from dissociation in scintillation proximity assay, Acar3
[2] = Table S1, top 94 PSCPL-scoring peptides, SPA, 10µM peptide, 125I β2m, folding over night at 18°C, dissociation measured up to 24 hours at 37°C

Row | Sequence | Stability T½ (h), peptide - Acar3 [1] | Stability T½ of Acar3 in complex with the peptide [2] | Stability T½ (h), peptide - Acar3 | Stability T½ of Acar3 in complex with the peptide
1 | AANMYIYPL [9-mer peptide] | 0.1 h | – | – | –
2 | AEMRETHWL [9-mer peptide] | 5.0 h | 300 min | – | –
3 | AKIEAPLLL [9-mer peptide] | 2.5 h | 150 min | – | –
4 | AMAAGLSSL [9-mer peptide] | 0.3 h | 18 min | – | –
5 | AMMWRIAQL [9-mer peptide] | 0.3 h | 18 min | – | –
6 | AMPKTIYEL [9-mer peptide] | 3.8 h | 228 min | – | –
7 | AVMFFPFWF [9-mer peptide] | 0.6 h | 36 min | – | –
8 | ETMKPAAMV [9-mer peptide] | 2.7 h | 162 min | – | –
9 | FHMSKPSDL [9-mer peptide] | 0.8 h | 48 min | – | –
10 | FLDKGTYTL [9-mer peptide] | 0.3 h | 18 min | – | –
11 | FLLENAAYL [9-mer peptide] | 1.2 h | 72 min | – | –
12 | FLQGAKWYL [9-mer peptide] | 0.1 h | – | – | –
13 | FMFDYIPPV [9-mer peptide] | 0.2 h | – | – | –
14 | FMIVNNFPV [9-mer peptide] | 0.3 h | 18 min | – | –
15 | FQANMFLTL [9-mer peptide] | 1.2 h | 72 min | – | –
16 | FQMGGIGPM [9-mer peptide] | 0.7 h | 42 min | – | –
17 | FRMLAWHVL [9-mer peptide] | 0.3 h | 18 min | – | –
18 | GAMYALANF [9-mer peptide] | 0.6 h | 36 min | – | –
19 | GLAATSFPL [9-mer peptide] | 1.5 h | 90 min | – | –
20 | GMNVTAPAL [9-mer peptide] | 0.3 h | 18 min | – | –
21 | GMVGAEFSL [9-mer peptide] | 7.6 h | 456 min | – | –
22 | GRLVTVNPF [9-mer peptide] | 0.5 h | 30 min | – | –

Row | Sequence | Stability T½ (h), peptide - Acar3 [1] | Stability T½ of Acar3 in complex with the peptide [2] | Stability T½ (h), peptide - Acar3 | Stability T½ of Acar3 in complex with the peptide
23 | HELSLFWPL [9-mer peptide] | 1.1 h | 66 min | – | –
24 | ILMEHIHKL [9-mer peptide] | 0.2 h | 12 min | – | –
25 | IMDASSFTL [9-mer peptide] | 1.4 h | 84 min | – | –
26 | KAMRPWQSF [9-mer peptide] | 0.4 h | 24 min | – | –
27 | KAMSTPFSL [9-mer peptide] | 5.3 h | 318 min | – | –
28 | KIMQVDRPM [9-mer peptide] | 2.6 h | 156 min | – | –
29 | KLMDVVYSI [9-mer peptide] | 0.4 h | 24 min | – | –
30 | KMAAFPETL [9-mer peptide] | 0.4 h | 24 min | – | –
31 | KMNAKAATL [9-mer peptide] | 2.1 h | 126 min | – | –
32 | KQLELFWVI [9-mer peptide] | 0.2 h | – | – | –
33 | KQLESVMYL [9-mer peptide] | 1.3 h | 78 min | – | –
34 | KQLEYSWVL [9-mer peptide] | 0.1 h | – | – | –
35 | KQMSQPYAV [9-mer peptide] | 4.0 h | 240 min | – | –
36 | KTAAAAAAF [9-mer peptide] | 0.4 h | 24 min | – | –
37 | KTMMQAHDL [9-mer peptide] | 9.9 h | 594 min | – | –
38 | LDMNVVKEL [9-mer peptide] | 0.6 h | 36 min | – | –
39 | LMDENTYAM [9-mer peptide] | 0.4 h | 24 min | – | –
40 | LMMNGTSAM [9-mer peptide] | 0.8 h | 48 min | – | –
41 | LPLPAQQPF [9-mer peptide] | 0.3 h | 18 min | – | –
42 | LPRWPPPQL [9-mer peptide] | 0.3 h | 18 min | – | –
43 | LQMLGENVL [9-mer peptide] | 2.6 h | 156 min | – | –
44 | LRWLAKSFF [9-mer peptide] | 0.5 h | 30 min | – | –

Row | Sequence | Stability T½ (h), peptide - Acar3 [1] | Stability T½ of Acar3 in complex with the peptide [2] | Stability T½ (h), peptide - Acar3 | Stability T½ of Acar3 in complex with the peptide
45 | LTMNLVSDI [9-mer peptide] | 4.5 h | 270 min | – | –
46 | MMMPMFNAF [9-mer peptide] | 7.2 h | 432 min | – | –
47 | MMMSTAVAF [9-mer peptide] | 7.3 h | 438 min | – | –
48 | MMWATAQAL [9-mer peptide] | 0.8 h | 48 min | – | –
49 | MPMSMPIPM [9-mer peptide] | 3.2 h | 192 min | – | –
50 | MTYKAAFDL [9-mer peptide] | 1.8 h | 108 min | – | –
51 | QAYAAPQLF [9-mer peptide] | 1.5 h | 90 min | – | –
52 | QMSWLPLCV [9-mer peptide] | 0.6 h | 36 min | – | –
53 | QQMFPGAPF [9-mer peptide] | 0.4 h | 24 min | – | –
54 | QWALLPYLF [9-mer peptide] | 9.9 h | 594 min | – | –
55 | RATQPAAEF [9-mer peptide] | 1.6 h | 96 min | – | –
56 | REMINHYQV [9-mer peptide] | 0.7 h | 42 min | – | –
57 | REWSGLNYL [9-mer peptide] | 1.9 h | 114 min | – | –
58 | RMAMIPRTL [9-mer peptide] | 0.5 h | 30 min | – | –
59 | RMMATKDSF [9-mer peptide] | 0.4 h | 24 min | – | –
60 | RMMGKTNPL [9-mer peptide] | 0.2 h | – | – | –
61 | RQIRMTSTI [9-mer peptide] | 0.1 h | – | – | –
62 | SLAIDAYPL [9-mer peptide] | – | – | 2.1 h | 126 min
63 | SMFERDFHF [9-mer peptide] | 0.2 h | – | – | –
64 | SMHFYGWSL [9-mer peptide] | 0.2 h | – | – | –
65 | SMMPEAMTI [9-mer peptide] | 0.9 h | 54 min | – | –
66 | SQMGLSCAL [9-mer peptide] | 0.3 h | 18 min | – | –

Row | Sequence | Stability T½ (h), peptide - Acar3 [1] | Stability T½ of Acar3 in complex with the peptide [2] | Stability T½ (h), peptide - Acar3 | Stability T½ of Acar3 in complex with the peptide
67 | STEFIPNLF [9-mer peptide] | 0.3 h | 18 min | – | –
68 | SVYFAAFAF [9-mer peptide] | 1.6 h | 96 min | – | –
69 | SYPPPPASF [9-mer peptide] | 0.2 h | 12 min | – | –
70 | VIMWYNYLF [9-mer peptide] | 0.3 h | 18 min | – | –
71 | VMMAKRPLI [9-mer peptide] | 0.5 h | 30 min | – | –
72 | VMPLLVWLF [9-mer peptide] | 1.9 h | 114 min | – | –
73 | VPMEKLKAL [9-mer peptide] | 1.4 h | 84 min | – | –
74 | VQTAAAVVF [9-mer peptide] | 0.2 h | – | – | –
75 | VVKQLPASF [9-mer peptide] | 0.1 h | – | – | –
76 | WLAKSFFEL [9-mer peptide] | 0.2 h | – | – | –
77 | WMACNSAAF [9-mer peptide] | 0.9 h | 54 min | – | –
78 | WMMAMRYPI [9-mer peptide] | 3.1 h | 186 min | – | –
79 | WQLTSIWPI [9-mer peptide] | 0.7 h | 42 min | – | –
80 | YLLEMLWRL [9-mer peptide] | 0.4 h | 24 min | – | –
81 | YLMPYSVYI [9-mer peptide] | 0.1 h | – | – | –
82 | YLQQNTHTL [9-mer peptide] | 0.5 h | 30 min | – | –
83 | YLYLRPYAL [9-mer peptide] | 2.4 h | 144 min | – | –
84 | YMHGSIHEV [9-mer peptide] | 0.9 h | 54 min | – | –
85 | YMKKRYEEF [9-mer peptide] | 0.2 h | – | – | –
86 | YMWECPDFF [9-mer peptide] | 2.6 h | 156 min | – | –
